Assay results reported in patent US20250262167A1, “COMPOUNDS, TARGETS AND PATHWAYS FOR MACROPHAGE MODULATION” (Massachusetts Institute of Technology, priority 2020, published 2025).
Counter-ions that a name gives are not always drawn.

What follows are molecules tested on human monocyte-derived macrophages (hMDMs) (assay: High throughput phenotypic screen of macrophage activation (cell shape, Z-score)). Settings: average cell-shape Z-score of the listed compounds whose targets fall in the Wiki pathway; hMDMs, 20 µM, 24 hours; M1-activating compounds (negative Z).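 Further: phalloidin and DAPI stained hMDMs imaged by high-content microscopy, cell eccentricity compared with DMSO control by T-test, round morphology scored negative, elongated positive.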
Format: cell-based
Parameters: key to Average Z-value: Z-score vs DMSO; negative = round cells, positive = elongated
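Wherever Category is given: human monocyte-derived macrophages held 24 h in 5 ng/mL IL-4 plus IL-13 before 24 h compound exposure, with cell shape measured from images in 384-well plates.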
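Wherever EC (M1 Z-score cutoff) is given: human monocyte-derived macrophages held 24 h in 5 ng/mL IL-4 plus IL-13 before 24 h compound exposure, with cell shape measured from images in 384-well plates.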
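Wherever EC is given: human monocyte-derived macrophages held 24 h in 5 ng/mL IL-4 plus IL-13 before 24 h compound exposure, with cell shape measured from images in 384-well plates.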
Description: The Z-score was calculated by T-test to measure the difference of cell morphology between treatment and control. Stimuli had negative Z-scores when induced cells to round morphology and positive scores when induced cells to elongated morphology. […] Equally mixed human monocytes isolated from fresh blood of 4 healthy donors were cultured in vitro with 50 ng/mL M-CSF for 7 days. hMDMs were trypsinized and plated on 384-well plates (5000 cells/well in 50 μL). Cells were recovered in 10 ng/mL M-CSF for 16 hrs and then treated with compounds for 24 hrs. Cells were washed, fixed and stained with Phalloidin and DAPI. The plates were scanned with a high-content microscope with six-fields per well to quantify the cell number and cell morphology. […] The cell eccentricity was calculated to measure the cell morphology. The Z-score was calculated by T-test to measure the difference in cell morphologies between each compound and DMSO control.
Cells were treated with a library of over 4000 individual compounds or drugs at the final concentration of 20 μM using the CyBi-Well simultaneous pipettor (CyBio). […] After 24 hr incubation, supernatants were removed using the microplate washer (Bioteck) and cells were fixed by adding 50 μL 16% paraformaldehyde (Thermo Scientific) with the dispenser for 20 minutes. Cells were then washed with 50 μL 1×PBS twice and incubated for 20 minutes with NucBlue and AF746 Phalloidin (Invitrogen) to stain nucleus and cytoskeleton. Cells were then washed with 50 μL 1×PBS twice and maintained in PBS for the image acquirement. Plates were read in the Opera Phenix high content screening system (PerkinElmer) to photograph cells using 20× objective in 2 fluorescent channels (Blue and FarRed). A total of 6 different fields in each well and an average of 1,000 cells were imaged per well. CellProfiler was used to identify each cell by overlapping signals from its nucleus and cytoskeleton, and calculate the eccentricity as the parameter to measure the cell morphology. The Z-score was calculated by T-test to measure the difference of cell morphology between each treatment and control. For each row of the 384-well plate, total 4 wells with first and last two columns treated with the same concentration of DMSO were combined as the control for the other 20 treatment wells in that row. In the meantime, classic M1 and M2 stimuli were added to generate the gold-standard Z-score cutoffs with M1 or M2 activation. Classic M1 stimuli include LPS (100 ng/mL), IFNγ (50 ng/mL, Peprotech), TNFα (50 ng/mL, Peprotech), or IFNγ plus TNFα. Classic M2 stimuli include IL-10 (10 ng/mL, Peprotech), IL-4 (10 ng/mL, Peprotech), or IL-13 (5 ng/mL, Peprotech).

| Molecule | Average Z-value |
| --- | --- |
| O=C(c1ccc(Nc2nccc(-c3cc4ccccc4s3)n2)cc1)N1CCC(N2CCCC2)CC1 [IKK 16] | −4.98 |
| OCCN(CCO)c1nc(N2CCCCC2)c2nc(N(CCO)CCO)nc(N3CCCCC3)c2n1 [DIPYRIDAMOLE] | −4.41 |

Same assay, conditions: cell shape Z-score of hMDMs averaged over the compounds listed for the Wiki pathway; compounds at 20 µM for 24 hours; positive values = M2-like

| Molecule | Average Z-value |
| --- | --- |
| O=C(O)c1nn(Cc2ccc(Cl)cc2Cl)c2ccccc12 [LONIDAMINE] | 6.13 |
| CC1(C)C(=O)C=C[C@]2(C)[C@H]3CC[C@@]4(C)[C@H](c5ccoc5)OC(=O)[C@H]5O[C@]54[C@]3(C)C=C[C@@H]12 [7-DESACETOXY-6,7-DEHYDROGEDUNIN] | 7.92 |
| (−)-Epigallocatechin Gallate | 7.36 |
| CC1=C(/C=C/C(C)=C/C=C/C(C)=C/C(=O)O)C(C)(C)CCC1 [Retinoic acid] | 6.86 |
| CCC[C@H](N[C@@H](C)C(=O)N1[C@H](C(=O)O)C[C@@H]2CCCC[C@@H]21)C(=O)OCC [PERINDOPRIL ERBUMINE] | 7.27 |
| Cl.Cl.O=S(=O)(NCCNC/C=C/c1ccc(Br)cc1)c1cccc2cnccc12 [H 89 dihydrochloride] | 7.14 |
| CC[C@@H]1/C=C/C=C/C[C@H](C)[C@H](O)[C@](C)(O)C(=O)[C@H](C)[C@@H](O)[C@H](C)C(=O)[C@H](C)[C@@H](O)[C@H](C)/C=C/C(=O)O[C@H]2[C@@H](C)[C@@H](CC1)O[C@@]1(CC[C@@H](C)[C@@H](C[C@H](C)O)O1)[C@@H]2C [oligomycin A] | 7.16 |
| COc1cc(C(=O)N2CCC(N3CCN(C)CC3)CC2)ccc1Nc1ncc2c(n1)N(C)c1ccccc1C(=O)N2C [LRRK2-IN-1] | 8.88 |
| O=C1Cc2c([nH]c3ccc([N+](=O)[O-])cc23)-c2ccccc2N1 [Alsterpaullone] | 12.55 |
| c1cc(-c2cnn3cc(-c4ccc(OCCN5CCCCC5)cc4)cnc23)ccn1 [Dorsomorphin dihydrochloride] | 11.09 |
| CN(C)CCC=C1c2ccccc2COc2ccccc21 [Doxepine HCl] | 6.87 |
| Cc1onc(-c2ccccc2)c1-c1ccc(S(N)(=O)=O)cc1 [valdecoxib] | 8.60 |

Same assay, conditions: cell shape Z-score of hMDMs treated with compound at 20 µM for 24 hours; averaged over the compounds listed for the WikiPathways pathway; negative = M1-like, positive = M2-like

| Molecule | Average Z-value |
| --- | --- |
| Cc1c[nH]c(-c2cnc(NCCNc3ccc(C#N)cn3)nc2-c2ccc(Cl)cc2Cl)n1 [CHIR-99021] | −4.52 |
| CC[C@@]1(O)C(=O)OCc2c1cc1n(c2=O)Cc2cc3c([N+](=O)[O-])cccc3nc2-1 [Rubitecan] | −4.17 |
| COc1c(C)c2c(c(O)c1C/C=C(\C)CCC(=O)O)C(=O)OC2 [Mycophenolic acid] | −4.54 |
| Cc1nc(Nc2[nH]nc3c2CN(C(=O)N[C@H](CN(C)C)c2ccccc2)C3(C)C)c2sccc2n1 [PF-3758309] | −4.29 |
| CCCS(=O)(=O)Nc1ccc(F)c(C(=O)c2c[nH]c3ncc(-c4ccc(Cl)cc4)cc23)c1F [Vemurafenib] | −8.55 |
| O=C1Nc2ccccc2C2=NC(CN3CCN(c4ccccc4)CC3)CN12 (centres unmarked) | −9.21 |
| CCCCC[C@H](O)/C=C/[C@H]1[C@H](O)CC(=O)[C@@H]1CCCCCCC(=O)O [Alprostadil] | −4.86 |
| C=C1[C@@H](C)[C@H]2[C@H](Cc3ccccc3)NC(=O)[C@]23OC(=O)/C=C/[C@H](O)CCC[C@@H](C)C/C=C/[C@H]3[C@@H]1O [cytochalasin B] | −20.00 |
| Cc1ccc(O)c(N=Nc2ccccc2)n1 [SIB 1757] | −7.89 |
| COc1cc2c(cc1OC)[C@@H]1C(=O)c3ccc4c(c3O[C@@H]1CO2)C[C@H](C(C)C)O4 [DIHYDROROTENONE] | −5.14 |
| CCOc1nc2cccc(C(=O)OC(C)OC(=O)OC3CCCCC3)c2n1Cc1ccc(-c2ccccc2-c2nn[nH]n2)cc1 (centres unmarked) [CANDESARTAN CILEXTIL] | −4.32 |
| OCCN(CCO)c1nc(N2CCCCC2)c2nc(N(CCO)CCO)nc(N3CCCCC3)c2n1 [DIPYRIDAMOLE] | −4.41 |
| YK 4-279 | −7.60 |

Same assay, conditions: compounds regulating actin-cytoskeleton

| Molecule | activation state induced in the screen |
| --- | --- |
| COC(=O)Nc1nc2ccc(SC(C)C)cc2[nH]1 [methiazole] | M1-activating |
| COc1cc([C@@H]2c3cc4c(cc3[C@H](O)[C@H]3COC(=O)[C@H]23)OCO4)cc(OC)c1OC [podofilox] | M2-activating |
| C=C1[C@@H](C)[C@H]2[C@H](Cc3ccccc3)NC(=O)[C@]23OC(=O)/C=C/[C@H](O)CCC[C@@H](C)C/C=C/[C@H]3[C@@H]1O [cytochalasin-B] | M1-activating |
| COc1cc2c(c(OC)c1OC)-c1ccc(OC)c(=O)cc1[C@@H](NC(C)=O)CC2 [colchicine] | M2-activating |
| CCCCc1ccc2[nH]c(NC(=O)OC)nc2c1 [parbendazole] | M1-activating |
| CC[C@]1(O)C[C@@H]2CN(CCc3c([nH]c4ccccc34)[C@@](C(=O)OC)(c3cc4c(cc3OC)N(C)[C@H]3[C@@](O)(C(=O)OC)[C@H](OC(C)=O)[C@]5(CC)C=CCN6CC[C@]43[C@@H]65)C2)C1 [vinblastine sulfate] | M2-activating |

Same assay, conditions: known M1-/M2-activating stimuli

| Molecule | cell shape induced |
| --- | --- |
| lipopolysaccharide [LPS] | round shape |
| IL13: classic M2 stimulus | elongated cell shape |
| TNFα | round shape |

The molecules below were run on hMDMs differentiated into M2 by IL-4 plus IL-13 (assay: Reprogramming screen and dosage response on M2-like differentiated macrophages). Settings: Homo sapiens, Macrophage, 24 h, read-out: EC.
Description: Shown are comparison of Z-scores between 5 μM or 10 μM of compounds. […] Shown are comparison of Z-scores between 5 μM or 10 μM of compounds. […] EC and fitness of 21 M1-polarizing (triangle) and 19 M2-polarizing compounds (circle) were calculated by the Michaelis-Menten equation and plotted. Data were summarized from 3 independent experiments.
Human macrophages were seeded into optical 384-well plates. Sixteen hours later, medium in M1 plates were replaced by M1 differentiating medium (complete RPMI with 50 ng/mL IFNγ and 50 ng/mL TNFα) and medium in M2 plates by M2 differentiating medium (complete RPMI with 5 ng/mL IL-4 and 5 ng/mL IL-13). After 24 hrs cell differentiation, M1 plates (M1 macrophages) and M2 plates (M2 macrophages) were treated with M2-activating compounds and M1-activating compounds respectively for 24 hrs. Two independent experiments were performed with or without replacing differentiating medium right before treatment. Cell imaging and analysis were performed as indicated above.
To investigate whether the identified compounds could reprogram or reactivate macrophages after M1- or M2-like differentiation, we rescreened the hits on M1- or M2-activated macrophages. hMDMs were activated into M2-like macrophages by IL-4 plus IL-13 or M1-like macrophages by IFNγ plus TNFα. After removing the differentiating cytokines, M2-like macrophages were treated with each of the 166 M1-activating compounds and M1-like macrophages were treated with each of the 180 M2-activating compounds at a final concentration of either 5 μM and 10 μM. 24 hours later, cell images were taken and cell shapes were quantified. […] Dosage responses were carried out with 40 commercial available compounds (21 M1-activating and 19 M2-activating) on polarized macrophages.
We also rescreened the hits on differentiated macrophages in the presence of differentiating cytokines: either IL-4 plus IL-13 or IFNγ plus TNFα.

| Molecule | EC (M1 Z-score cutoff) [µM] |
| --- | --- |
| O=C(Nc1ccc([N+](=O)[O-])cc1Cl)c1cc(Cl)ccc1O [Niclosamide] | 1.13 |
| OC1(c2ccc(Cl)c(C(F)(F)F)c2)CCN(CCCC(c2ccc(F)cc2)c2ccc(F)cc2)CC1 [Penfluridol] | 0.169 |
| COc1ccc(S(=O)(=O)N(C(C)=O)c2ccccc2/C=C/c2cc[n+]([O-])cc2)cc1 [HMN214] | 1.48 |
| CCCCC[C@H](O)/C=C/[C@H]1[C@H](O)CC(=O)[C@@H]1CCCCCCC(=O)O [Alprostadil] | 0.0562 |
| Cc1oc(=O)oc1CN1CCN(c2cc3c(cc2F)c(=O)c(C(=O)O)c2n3C(C)S2)CC1 (centres unmarked) [Prulifloxacin] | 15 |
| O=C1c2c(O)ccc(O)c2C(=O)c2c(NCCNCCO)ccc(NCCNCCO)c21 [MITOXANTRONE HYDROCHLORIDE] | 0.559 |
| C[C@@]12C(=O)OC(=O)[C@]1(C)[C@H]1CC[C@@H]2O1 [Cantharidin] | 0.159 |

Same assay, conditions: M1-activating compounds on M2-like macrophages (IL-4 plus IL-13); EC = concentration reaching Z-score cutoff

| Molecule | EC [µM] |
| --- | --- |
| O=C1c2ccccc2-c2nc3nonc3nc21 [SMER3] | 0.09398 |
| CC(C)c1ccc(Cn2ccc3c4c(N)nc(NC5CC5)nc4ccc32)cc1.Cl.Cl [SCH 79797 dihydrochloride] | 0.2194 |
| Evodiamine | 0.6799 |
| CCC[C@H](NC(=O)/C(C#N)=C/c1cccc(Br)n1)c1ccccc1 [WP1130] | 15 |

Same assay, conditions: differentiated macrophages

| Molecule | Category |
| --- | --- |
| O=C1c2ccccc2-c2nc3nonc3nc21 [SMER3] | M1 (−4 for M1-activated macrophages) |
| CC(C)c1ccc(Cn2ccc3c4c(N)nc(NC5CC5)nc4ccc32)cc1.Cl.Cl [SCH 79797 dihydrochloride] | M1 (−4 for M1-activated macrophages) |
| CCC[C@H](NC(=O)/C(C#N)=C/c1cccc(Br)n1)c1ccccc1 [WP1130] | M1 (−4 for M1-activated macrophages) |
